Measured values reported in US20250277012A1 (Protagonist Therapeutics, Inc., priority 2021, published 2025).
pIC50: −log10 of the molar value. Where two headings read alike, the source gives them in different places. Positions of bridges follow the written chain, without caps; N, C: chain ends. Non-standard residues stand in square brackets, D forms with d. Residues, ends and D or L forms follow the SMILES beside them. Groups on a side chain read outwards from the residue. *: point of attachment. CH3O(CH2CH2O)11CH2CH2CO = COCCOCCOCCOCCOCCOCCOCCOCCOCCOCCOCCOCCC(=O)*; X1 = C[N+](C)(CCNC(=O)CCCCCCCCCCCCCCCCC(=O)O)CC(=O)*; X5 = CCCCCCCCCCCCCCCC(=O)NCC[N+](C)(C)CC(=O)*; C18 diacid = O=C(O)CCCCCCCCCCCCCCCCC(=O)*; Dip = N[C@H](C(=O)O)C(c1ccccc1)c1ccccc1; 1Nal = N[C@@H](Cc1cccc2ccccc12)C(=O)O; Palmitoyl = CCCCCCCCCCCCCCCC(=O)*; β3hF = N[C@H](CC(=O)O)Cc1ccccc1; X3 = CCCCCCCCCCCCCCCC(=O)NCCC*; NMeK = CN[C@@H](CCCCN)C(=O)O; Tle = CC(C)(C)[C@H](N)C(=O)O; Nicotinoyl = O=C(c1cccnc1)*; Isovaleryl = CC(C)CC(=O)*; dNMeS = CN[C@H](CO)C(=O)O; hCys = N[C@@H](CCS)C(=O)O; Dap = NC[C@H](N)C(=O)O; AEEA = NCCOCCOCC(=O)O; Ahx = NCCCCCC(=O)O

Assays:
ferroportin [1] = target: T1, ferroportin (Homo sapiens, UniProt Q9NP59); assay: FPN activity assay: ferroportin-GFP internalization/degradation in HEK293 cells; format: cell-based; set-up: expressed in transfected cells; details: ferroportin-GFP internalization/degradation, Table 6E, read-out: FPN IC50
T1 sequence (Q9NP59 1-571): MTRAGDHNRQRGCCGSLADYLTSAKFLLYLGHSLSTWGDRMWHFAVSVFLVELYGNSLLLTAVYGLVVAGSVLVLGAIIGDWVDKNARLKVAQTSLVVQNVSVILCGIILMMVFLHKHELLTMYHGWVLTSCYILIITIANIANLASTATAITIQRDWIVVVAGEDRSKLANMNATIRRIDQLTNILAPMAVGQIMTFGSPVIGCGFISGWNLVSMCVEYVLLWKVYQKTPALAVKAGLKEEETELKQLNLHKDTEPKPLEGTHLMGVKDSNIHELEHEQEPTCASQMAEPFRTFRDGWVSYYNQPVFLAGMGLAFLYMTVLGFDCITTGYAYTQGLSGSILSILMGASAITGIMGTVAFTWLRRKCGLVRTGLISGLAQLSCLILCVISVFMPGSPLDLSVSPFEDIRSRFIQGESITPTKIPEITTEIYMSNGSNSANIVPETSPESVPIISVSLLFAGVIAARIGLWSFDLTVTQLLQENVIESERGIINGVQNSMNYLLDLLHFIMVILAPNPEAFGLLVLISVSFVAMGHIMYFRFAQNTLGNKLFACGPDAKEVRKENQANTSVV
Procedure: Following internalization, the ferroporin protein is degraded.
A retro inverse peptide is a peptide with a reversed sequence in all D amino acids. An example is that Hy-Glu-Thr-His-NH2 becomes Hy-DHis-DThr-DGlu-NH2. The EC50 of these reference compounds for ferroportin internalization/degradation was determined according to the FPN activity assay described above. These peptides served as control standards.

ferroportin [2] = target: T1, ferroportin; assay: T47D cell-based ferroportin internalization assay in presence of mouse serum albumin (MSA); set-up: a human breast carcinoma adherent cell line which endogenously expresses ferroportin; host or cells: T47D; details: Table 6E
In short: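 Peptide potency for inducing ferroportin internalization was measured in T47D cells in the presence of serum albumin. Cells grown in RPMI with fetal bovine serum were seeded in 96-well plates at 80-100 k cells per well in 100 ul and rested overnight. Dilution series of test peptides were preincubated 30 min at room temperature, then added to the cells after the medium was aspirated.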

[3] = T47D internalization assay in presence of mouse serum albumin (MSA)
[4] = T47D internalization assay with MSA

Row | SMILES | DC50 (ferroportin [1]; HEK293 cells) | pIC50 (ferroportin [2]; [3]) | DC50 (ferroportin [1]; at least 18 hours incubation) | pIC50 (ferroportin [2]; [4])
1 | CC(C)CC(=O)N[C@@H](CCC(=O)O)C(=O)N[C@H](C(=O)N[C@@H](Cc1c[nH]cn1)C(=O)N[C@H](C(=O)N1CCC[C@H]1C(=O)N[C@H]1CSSC[C@@H](C(=O)N(C)[C@@H](CCCCNC(=O)COCCOCCNC(=O)COCCOCCNC(=O)[C@H](CN)NC(=O)CCCCCCCCCCCCCCCCC(=O)O)C(=O)N[C@H](CC(=O)N[C@H](C(N)=O)C(C)(C)C)Cc2ccccc2)NC1=O)C(c1ccccc1)c1ccccc1)[C@@H](C)O [compound 290] (Isovaleryl-ETH[Dip]PCC[NMeK]([AEEA-AEEA-Dap-C18 diacid])[β3hF][Tle]-NH2; disulfide 6-7) | 10 to 100 nM | 7.00 to 8.00 | – | –
2 | COCCOCCOCCOCCOCCOCCOCCOCCOCCOCCOCCOCCC(=O)NCCCC[C@@H](NC(=O)C[C@H](Cc1ccccc1)NC(=O)[C@H](CCCCNC(=O)COCCOCCNC(=O)COCCOCCNC(=O)[C@H](CN)NC(=O)CCCCCCCCCCCCCCCCC(=O)O)N(C)C(=O)[C@@H]1CSSC[C@H](NC(=O)[C@@H]2CCCN2C(=O)[C@@H](NC(=O)[C@H](Cc2c[nH]cn2)NC(=O)[C@@H](NC(=O)[C@H](CCC(=O)OC)NC(=O)CC(C)C)[C@@H](C)O)C(c2ccccc2)c2ccccc2)C(=O)N1)C(N)=O [compound 254] (Isovaleryl-E(OMe)TH[Dip]PCC[NMeK]([AEEA-AEEA-Dap-C18 diacid])[β3hF][dK](CH3O(CH2CH2O)11CH2CH2CO)-NH2; disulfide 6-7) | 10 to 100 nM | 7.00 to 8.00 | – | –
3 | CCCCCCCCCCCCCCCC(=O)NCCCCCC(=O)NCCCC[C@@H](C(=O)N[C@H](CC(=O)N[C@H](CCCCN)C(N)=O)Cc1ccccc1)N(C)C(=O)[C@@H]1CSSC[C@H](NC(=O)[C@@H]2CCCN2C(=O)[C@@H](NC(=O)[C@H](Cc2cnc[nH]2)NC(=O)[C@@H](NC(=O)[C@H](CCC(=O)OC)NC(=O)CC(C)C)[C@@H](C)O)C(c2ccccc2)c2ccccc2)C(=O)N1 [compound 307] (Isovaleryl-E(OMe)TH[Dip]PCC[NMeK]([Ahx-Palmitoyl])[β3hF][dK]-NH2; disulfide 6-7) | 10 to 100 nM | 8.00 to 9.00 | – | –
4 | COCCOCCOCCOCCOCCOCCOCCOCCOCCOCCOCCOCCC(=O)NCCCC[C@@H](NC(=O)C[C@H](Cc1ccccc1)NC(=O)[C@H](CCCCNC(=O)COCCOCCNC(=O)COCCOCCNC(=O)[C@H](CN)NC(=O)CCCCCCCCCCCCCCCCC(=O)O)N(C)C(=O)[C@@H]1CSSC[C@H](NC(=O)[C@@H]2CCCN2C(=O)[C@@H](NC(=O)[C@H](Cc2c[nH]cn2)NC(=O)[C@@H](NC(=O)[C@H](CCC(=O)O)NC(=O)CC(C)C)[C@@H](C)O)C(c2ccccc2)c2ccccc2)C(=O)N1)C(N)=O [compound 255] (Isovaleryl-ETH[Dip]PCC[NMeK]([AEEA-AEEA-Dap-C18 diacid])[β3hF][dK](CH3O(CH2CH2O)11CH2CH2CO)-NH2; disulfide 6-7) | 10 to 100 nM | 7.00 to 8.00 | – | –
5 | CC(C)CC(=O)N[C@@H](CCC(=O)O)C(=O)N[C@H](C(=O)N[C@@H](Cc1c[nH]cn1)C(=O)N[C@H](C(=O)N1CCC[C@H]1C(=O)N[C@H]1CSSCC[C@@H](C(=O)N(C)[C@@H](CCCCNC(=O)COCCOCCNC(=O)COCCOCCNC(=O)[C@H](CN)NC(=O)CCCCCCCCCCCCCCCCC(=O)O)C(=O)N[C@H](CC(=O)N[C@H](CCCCN)C(N)=O)Cc2ccccc2)NC1=O)C(c1ccccc1)c1ccccc1)[C@@H](C)O [compound 270] (Isovaleryl-ETH[Dip]PC[hCys][NMeK]([AEEA-AEEA-Dap-C18 diacid])[β3hF][dK]-NH2; disulfide 6-7) | 10 to 100 nM | 7.00 to 8.00 | – | –
6 | CC(C)CC(=O)N[C@@H](CCC(=O)O)C(=O)N[C@H](C(=O)N[C@@H](Cc1c[nH]cn1)C(=O)N[C@H](C(=O)N1CCC[C@H]1C(=O)N[C@H]1CSSC[C@@H](C(=O)N(C)[C@@H](CCCCNC(=O)COCCOCCNC(=O)COCCOCCNC(=O)[C@H](CN)NC(=O)CCCCCCCCCCCCCCCCC(=O)O)C(=O)N[C@H](CC(=O)N[C@H](CCCCN)C(=O)N[C@@H](Cc2cccc3ccccc23)C(N)=O)Cc2ccccc2)NC1=O)C(c1ccccc1)c1ccccc1)[C@@H](C)O [compound 258] (Isovaleryl-ETH[Dip]PCC[NMeK]([AEEA-AEEA-Dap-C18 diacid])[β3hF][dK][1Nal]-NH2; disulfide 6-7) | 10 to 100 nM | 7.00 to 8.00 | – | –
7 | CCCCCCCCCCCCCCCC(=O)NCCCSCC[C@H](NC(=O)[C@@H]1CSSC[C@H](NC(=O)[C@@H]2CCCN2C(=O)[C@@H](NC(=O)[C@H](Cc2cnc[nH]2)NC(=O)[C@@H](NC(=O)[C@H](CCC(=O)O)NC(=O)CC(C)C)[C@@H](C)O)C(c2ccccc2)c2ccccc2)C(=O)N1)C(=O)N[C@H](C(=O)N[C@H](CCCCN)C(N)=O)C(c1ccccc1)c1ccccc1 [compound 162] (Isovaleryl-ETH[Dip]PCC[hCys](X3)[Dip][dK]-NH2; disulfide 6-7) | – | – | 10 to 100 nM | 8.00 to 9.00
8 | CC(C)CC(=O)N[C@@H](CCC(=O)O)C(=O)N[C@H](C(=O)N[C@@H](Cc1cnc[nH]1)C(=O)N[C@H](C(=O)N1CCC[C@H]1C(=O)N[C@H]1CSSC[C@@H](C(=O)N(C)[C@@H](CCCCNC(=O)COCCOCCNC(=O)COCCOCCNC(=O)[C@H](CN)NC(=O)CCCCCCCCCCCCCCCCC(=O)O)C(=O)N[C@H](CC(=O)N[C@H](CCCCN)C(=O)N(C)[C@H](CO)C(N)=O)Cc2ccccc2)NC1=O)C(c1ccccc1)c1ccccc1)[C@@H](C)O [compound 247] (Isovaleryl-ETH[Dip]PCC[NMeK]([AEEA-AEEA-Dap-C18 diacid])[β3hF][dK][dNMeS]-NH2; disulfide 6-7) | 10 to 100 nM | 8.00 to 9.00 | – | –
9 | CCCCCCCCCCCCCCCC(=O)NCC[N+](C)(C)CC(=O)NCCCC[C@@H](C(=O)N[C@H](C(=O)N[C@H](CCCCN)C(N)=O)C(c1ccccc1)c1ccccc1)N(C)C(=O)[C@@H]1CSSC[C@H](NC(=O)[C@@H]2CCCN2C(=O)[C@@H](NC(=O)[C@H](Cc2cnc[nH]2)NC(=O)[C@@H](NC(=O)[C@H](CCC(=O)O)NC(=O)CC(C)C)[C@@H](C)O)C(c2ccccc2)c2ccccc2)C(=O)N1 [compound 194] (Isovaleryl-ETH[Dip]PCC[NMeK](X5)[Dip][dK]-NH2; disulfide 6-7) | – | – | 10 to 100 nM | 8.00 to 9.00
10 | CC(C)CC(=O)N[C@@H](CCC(=O)O)C(=O)N[C@H](C(=O)N[C@@H](Cc1c[nH]cn1)C(=O)N[C@H](C(=O)N1CCC[C@H]1C(=O)N[C@H]1CSSC[C@@H](C(=O)N[C@@H](CCCCNC(=O)CCCCCNC(=O)C[N+](C)(C)CCNC(=O)CCCCCCCCCCCCCCCCC(=O)O)C(=O)N[C@H](CC(=O)N[C@H](CCCCN)C(N)=O)Cc2ccccc2)NC1=O)C(c1ccccc1)c1ccccc1)[C@@H](C)O [compound 312] (Isovaleryl-ETH[Dip]PCCK([Ahx-X1])[β3hF][dK]-NH2; disulfide 6-7) | 10 to 100 nM | 7.00 to 8.00 | – | –
11 | C[C@@H](O)[C@H](NC(=O)[C@H](CCC(=O)O)NC(=O)c1cccnc1)C(=O)N[C@@H](Cc1c[nH]cn1)C(=O)N[C@H](C(=O)N1CCC[C@H]1C(=O)N[C@H]1CSSC[C@@H](C(=O)N(C)[C@@H](CCCCNC(=O)COCCOCCNC(=O)COCCOCCNC(=O)[C@H](CN)NC(=O)CCCCCCCCCCCCCCCCC(=O)O)C(=O)N[C@H](CC(=O)N[C@H](CCCCN)C(N)=O)Cc2ccccc2)NC1=O)C(c1ccccc1)c1ccccc1 [compound 299] (Nicotinoyl-ETH[Dip]PCC[NMeK]([AEEA-AEEA-Dap-C18 diacid])[β3hF][dK]-NH2; disulfide 6-7) | 10 to 100 nM | 7.00 to 8.00 | – | –
12 | COC(=O)CCC(CCCC(C)C)C(=O)N[C@H](C(=O)N[C@@H](Cc1c[nH]cn1)C(=O)N[C@H](C(=O)N1CCC[C@H]1C(=O)N[C@H]1CSSC[C@@H](C(=O)N(C)[C@@H](CCCCNC(=O)CCCCCNC(=O)C[N+](C)(C)CCNC(=O)CCCCCCCCCCCCCCCCC(=O)O)C(=O)N[C@H](C(=O)N[C@H](CCCCN)C(N)=O)C(c2ccccc2)c2ccccc2)NC1=O)C(c1ccccc1)c1ccccc1)[C@@H](C)O (single isomer, unassigned) [compound 137] | – | – | 10 to 100 nM | 7.00 to 8.00
13 | COC(=O)CCC(CCCC(C)C)C(=O)N[C@H](C(=O)N[C@@H](Cc1c[nH]cn1)C(=O)N[C@H](C(=O)N1CCC[C@H]1C(=O)N[C@H]1CSSC[C@@H](C(=O)N(C)[C@@H](CCCCNC(=O)CCCCCNC(=O)C[N+](C)(C)CCNC(=O)CCCCCCCCCCCCCCCCC(=O)O)C(=O)N[C@H](C(=O)N[C@H](CCCCN)C(N)=O)C(c2ccccc2)c2ccccc2)NC1=O)C(c1ccccc1)c1ccccc1)[C@@H](C)O (single isomer, unassigned) [compound 138] | – | – | 10 to 100 nM | 6.30 to 7.00
